pIC50: −log10 of the molar value.
Assays:
Ras farnesyl transferase = molecular target: T1, Ras farnesyl transferase (Homo sapiens, UniProt P49354+P49356); experiment: Ras farnesyl transferase inhibiting activity (filter-binding, tritium-farnesylpyrophosphate, Ras-CVLS substrate); assay type: biochemical; conditions: recombinant Ras farnesyl transferase, 30 minutes at 37° C., read-out: Ftase IC50
T1 construct: made in house
Experimental: The enzyme reaction was performed in 50 μl of 50 mM Sodium HEPES buffer solution containing 25 mmol of potassium chloride. 25 mmol of magnesium chloride, 10 mmol of DTT and 50 μmol of zinc chloride. 1.5 μmol of Ras substrate protein, 0.15 μmol of tritium-farnesylpyrophosphate and 4.5 nmol of farnesyl transferase were used.
More specifically, in the initial step, farnesyl transferase was added to the above buffer solution, reaction was maintained for 30 minutes at 37° C. and then the reaction was stopped by adding 1 ml of ethanol solution containing 1M HCl. The formed precipitates were adsorbed to GF/B filter using Hopper harvestor(Hopper #225V) for filter-binding, washed with ethanol, and then radioactivity of the dried filter was measured using LKB β counter. Enzyme titer was measured in the unsaturated state of substrate where the concentrations of Ras substrate protein and farnesyl transferase have quantitative relationship. Enzyme inhibiting activity was measured using less than 5% of total reaction solution of the compound according to the present invention dissolved in dimethylsulfoxide(DMSO) solution as a reagent. Enzyme inhibiting activity was represented by percentage of the amount of the farnesyl incorporated with the reagent to that without the reagent.

[1] = tested on: intracellular Ras farnesyl transferase, Rat2 cell line; experiment: Intracellular Ras farnesyl transferase inhibiting activity in transformed Rat2 cells (35S-methionine labelling, Y13-259 immunoprecipitation, SDS-PAGE); assay type: cell-based; conditions: Rattus norvegicus; transformed Rat2 fibroblast cell line; concentration inhibiting 50% of farnesyl binding of Ras protein; read-out: Ftase CIC50
Experimental: In the present experiment, Rat2 cell line which expresses C-Harvey-Ras protein having transforming activity and Rat2 cell line(Korean patent application No. 97-14409) which is transformed with fused protein of H-Ras substituted with polybasic lysine domain at C-terminus of K-Ras were used. The experiment was performed by the modified Declue's method(Declue. J. E. et al., Cancer Research, 1991. 51, 712). Hereinafter, the experimental method will be described in more detail.
3×10^5 cells of transformed Rat2 fibroblast cell line were sprayed on 60 mm cell cultivation dish and cultivated for 48 hours in a cell incubator at 37° C. and after 50% or more of density was reached, it was treated with a reagent. The compound according to the present invention dissolved in dimethylsulfoxide(DMSO) was used as the reagent. 1% of dimethylsulfoxide was used in both control and experimental groups. After 4 hours from the treatment of the reagent, methionine labeled with 150 μCi of radioactive isotope, ^35S per 1 ml of medium, was added and after cultivating for 20 hours, the cells were washed with physiological saline water. The cells were lysed using 1 ml of cool cell lysis buffer solution(50 mM of Sodium Herpiss buffer solution containing 5 mmol of magnesium chloride. 1 mmol of DTT, 1% NP 40, 1 mmol of EDTA, 1 mmol of PMSF, 2 μmol of leupeptin, 2 μmol of pepstatin A and 2 μmol of antipain) and the supernatant was obtained by high-velocity centrifugation of 12,000 g×5 minutes. The amount of the labeled radioisotope of the supernatent was measured and standardized to obtain a quantitative result in immunoprecipitation reaction and then. Y13-259, monoclonal antiboby specifically binding to Ras protein(Furth, M. E. et al., J. Virol, 1982, 43, 294) was added and reacted for 15 hours at 4° C. Protein A bound to goat anti-murine Immunoglobulin antibody-agarose suspension was added to the solution and reacted for 1 hour at 4° C. and then, to remove unspecific binding product, immunoprecipitates were washed with buffer solution(50 mM Tris chloride buffer solution containing 50 mmol of sodium chloride, 0.5% of sodium dioxycolate, 0.5% of NP 40 and 0.1% of SDS). The precipitates were boiled in reagent buffer solution for electrophoresis and then, electrophoresis was performed using 13.5% of SDS polyacrylamide gel. After electrophoresis, the gel was fixed and dried. Then, the gel was exposed to X-ray film, developed and printed. From the result of the experiment, intensities of band of protein with and without farnesyl of Ras protein were measured, and the concentration of reagent inhibiting 50% of farnesyl binding was defined as CIC50, an intracellular Ras farnesyl transferase inhibiting activity.

[2] = molecular target: T2, Geranylgeranyl transferase (Bos taurus, UniProt P29702+Q5EAD5); experiment: Geranylgeranyl transferase inhibiting activity (geranylgeranyl pyrophosphate, Ras-CVIL substrate); assay type: biochemical; conditions: geranylgeranyl transferase purified from bovine brain, read-out: GGtase IC50
T2 construct: Geranylgeranyl transferase was purified from bovine brain; from tissue; host or cells: bovine brain
Experimental: To evaluate the selective enzyme inhibiting activity of the compound according to the present invention, inhibiting activity on geranylgeranyl transferase was measured. Geranylgeranyl transferase was purified from bovine brain with the method modified from Schber's method(Schber et al., J. Biol. Chem. 1990, 265, 14701). and substantially the same experiment as that of farnesyl transferase was performed using geranylgeranyl pyrophosphate and Ras-CVIL substrate protein under the similar condition to farnesyl transferase reaction.

| SMILES | pIC50 (Ras farnesyl transferase) | pIC50 [1] | pIC50 [2] |
| --- | --- | --- | --- |
| CC1(c2cccc3ccccc23)C(=O)N(CCCn2ccnc2)C(=O)N1Cc1cccnc1 (stereo not drawn) [Compound 18, 1-(3-pyridylmethyl)-3-(3-imidazol-1-yl-propyl)-5-methyl-5-naphthalen-1-yl-imidazolidin-2,4-dione] | 6.22 | > 4.70 | < 5.00 |
| CC1(c2cccc3ccccc23)C(=O)N(CCCn2ccnc2)C(=O)N1Cc1ccc(C(=O)N2CCN(C(=O)OCc3ccccc3)CC2)cc1 (stereo not drawn) [Compound 43, 4-{4-[3-(3-imidazol-1-yl-propyl)-5-methyl-5-naphthalen-1-yl-2,4-dioxo-imidazolidin-1-ylmethyl]-benzoyl}-piperazine-1-carboxylic acid benzyl ester] | 5.30 | > 4.70 | < 5.00 |
| CC1(c2cccc3ccccc23)C(=O)N(CCCc2cncn2Cc2ccc(C#N)cc2)C(=O)N1CC(=O)O (stereo not drawn) [Compound 52, (3-{3-[3-(4-cyanobenzyl)-3H-imidazol-4-yl]-propyl}-5-methyl-5-naphthalen-1-yl-2,4-dioxo-imidazolidin-1-yl)-acetic acid] | 7.72 | > 4.70 | < 5.00 |
| CN1CCN(C(=O)C[C@H]2C(=O)N(Cc3cncn3Cc3ccc(C#N)cc3)C(=O)N2Cc2cccc3ccccc23)CC1 [Compound 84, 4-((5S)-{4-[2-(4-methyl-piperazin-1-yl)-2-oxo-ethyl]-3-naphthalen-1-ylmethyl-2,5-dioxo-imidazolidin-1-ylmethyl}-imidazol-1-ylmethyl)-benzonitrile] | 6.92 | > 4.70 | < 5.00 |
| CC1(c2cccc3ccccc23)C(=O)N(CCCn2ccnc2)C(=O)N1Cc1cccc(C(F)(F)F)c1 (stereo not drawn) [Compound 22, 1-(3-trifluoromethyl-benzyl)-3-(3-imidazol-1-yl-propyl)-5-methyl-5-naphthalen-1-yl-imidazolidin-2,4-dione] | 5.77 | > 4.70 | < 5.00 |
| CCN1C(=O)N(Cc2cncn2Cc2ccc(C#N)cc2)C(=O)C1(C)c1cccc2ccccc12 (stereo not drawn) [Compound 61, 4-[5-(3-ethyl-4-methyl-4-naphthalen-1-yl-2,5-dioxo-imidazolidin-1-ylmethyl)-imidazol-1-ylmethyl]-benzonitrile] | 6.80 | > 4.70 | < 5.00 |
| COC(=O)C(CCSC)NC(=O)CN1C(=O)N(CCc2c[nH]cn2)C(=O)C1(C)c1cccc2ccccc12 (stereo not drawn) [Compound 3, 2-(2-{3-[2-(1H-imidazol-4-yl)-ethyl]-5-methyl-5-naphthalen-1-yl-2,4-dioxo-imidazolidin-1-yl}-acetylamino)-4-methylsulfanyl-butyric acid methyl ester] | 5.60 | 5.30 | < 5.00 |
| COCCN(C)C(=O)c1ccc(CN2C(=O)N(CCCn3ccnc3)C(=O)C2(C)c2cccc3ccccc23)cc1 (stereo not drawn) [Compound 42, 4[3-(3-imidazol-1-yl-propyl)-5-methyl-5-naphthalen-1-yl-2,4-dioxo-imidazolidin-1-ylmethyl]-N-(2-methoxy-ethyl)-N-methyl-benzamide] | 6.00 | > 4.70 | < 5.00 |
| CC1(c2cccc3ccccc23)C(=O)N(CCCn2ccnc2)C(=O)N1Cc1cccc(CNS(C)(=O)=O)c1 (stereo not drawn) [Compound 36, N-{3-[3-(3-imidazol-1-yl-propyl)-5-methyl-5-naphthalen-1-yl-2,4-dioxo-imidazolidin-1-ylmethyl]-benzyl}-methanesulfonamide] | 5.92 | > 4.70 | < 5.00 |
| CC1(c2cccc3ccccc23)C(=O)N(CCCc2cncn2Cc2ccc(C#N)cc2)C(=O)N1Cc1ccco1 (stereo not drawn) [Compound 55, 4-{5-[3-(3-furan-2-ylmethyl-4-methyl-4-naphthalen-1-yl-2,5-dioxo-imidazolidin-1-yl)-propyl]-imidazol-1-ylmethyl}-benzonitrile] | 7.35 | > 4.70 | < 5.00 |
| CC1(c2cccc3ccccc23)C(=O)N(CCCn2ccnc2)C(=O)N1Cc1ccc(CN)cc1 (stereo not drawn) [Compound 34, 1-(4-aminomethyl-benzyl)-3-(3-imidazol-1-yl-propyl)-5-methyl-5-naphthalen-1-yl-imidazolidin-2,4-dione] | 5.68 | > 4.70 | < 5.00 |
| CC1(c2cccc3ccccc23)C(=O)N(CCCn2ccnc2)C(=O)N1CC(=O)NC1(C#N)CCOCC1 (stereo not drawn) [Compound 67, N-(4-cyano-tetrahydropyran-4-yl)-2-[3-(3-imidazol-1yl-propyl)-5-methyl-5-naphthalen-1-yl-2,4-dioxo-imidazolidin-1-yl]-acetamide] | 5.44 | > 4.70 | < 5.00 |
| CC1(c2cccc3ccccc23)C(=O)N(CCCn2ccnc2)C(=O)N1Cc1ccccc1CNS(C)(=O)=O (stereo not drawn) [Compound 35, N-{2-[3-(3-imidazol-1-yl-propyl)-5-methyl-5-naphthalen-1-yl-2,4-dioxo-imidazolidin-1-ylmethyl]-benzyl}-methanesulfonamide] | 6.30 | > 4.70 | < 5.00 |
| CCCCN1C(=O)N(CCCc2cncn2Cc2ccc(C#N)cc2)C(=O)C1(C)c1cccc2ccccc12 (stereo not drawn) [Compound 49, 4-{5-[3-(3-butyl-4-methyl-4-naphthalen-1-yl-2,5-dioxo-imidazolidin-1-yl)-propyl]-imidazol-1-ylmethyl}benzonitrile] | 7.26 | > 4.70 | < 5.00 |
| CCOC(=O)CC1C(=O)N(Cc2cncn2Cc2ccc(C#N)cc2)C(=O)N1Cc1cccc2ccccc12 (stereo not drawn) [Compound 77, {1-[3-(4-cyano-benzyl)-3H-imidazol-4-ylmethyl]-3-naphthalen-1-ylmethyl-2,5-dioxo-imidazolidin-4-yl}-acetic acid ethyl ester] | 7.30 | > 5.00 | < 5.00 |
| CSc1ccc(CN2C(=O)N(CCCn3ccnc3)C(=O)C2(C)c2cccc3ccccc23)cc1 (stereo not drawn) [Compound 26, 3-(3-imidazol-1-yl-propyl)-1-(4-methylsulfanyl-benzyl)-5-methyl-5-naphthalen-1-yl-imidazolidin-2,4-dione] | 6.15 | > 4.70 | < 5.00 |
| CN1C(=O)N(CCCc2cncn2Cc2ccc(Br)cc2)C(=O)C1(C)c1cccc2ccccc12 (stereo not drawn) [Compound 69, 3-{3-[3-(4-bromo-benzyl)-3H-imidazol-4-yl]-propyl}-1,5-di-methyl-5-naphthalen-1-yl-imidazolidin-2,4-dione] | 6.52 | > 4.70 | < 5.00 |
| CSCCC(NC(=O)CN1C(=O)N(CCc2c[nH]cn2)C(=O)C1(C)c1cccc2ccccc12)C(=O)O (stereo not drawn) [Compound 4, 2-(2-{3-[2-(1H-imidazol-4-yl)-ethyl]-5-methyl-5-naphthalen-1-yl-2,4-dioxo-imidazolidin-1-yl}-acetylamino)-4-methylsulfanyl-butyric acid] | 8.32 | 5.00 | 6.15 |
| CCCN1C(=O)N(CCCc2cncn2Cc2ccc(C#N)cc2)C(=O)C1(C)c1cccc2ccccc12 (stereo not drawn) [Compound 48, 4-{5-[3-(3-propyl-4-methyl-4-naphthalen-1-yl-2,5-dioxo-imidazolidin-1-yl)-propyl]-imidazol-1-ylmethyl}benzonitrile] | 7.40 | > 4.70 | < 5.00 |

From patent publication US6384061B1, “Hydantoin compounds and methods related thereto” (LG Chemical Ltd., priority 2000, dated 2002)
